Assay results: US20250084061A1, “SULFONYL FUNCTIONAL COMPOUND, METHODS AND USES THEREOF” (Hubei Biopesticide Engineering Research Centre, priority 2023, published 2025)
Like-named read-outs stand apart in the source and are kept apart here.

Legend:
Botrytis cinerea = assay: Bactericidal (fungicidal) activity by microdilution; assay type: cell-based
Rhizoctonia solani = assay: as above; assay type: cell-based
Fusarium culmorum = assay: as above; assay type: cell-based
[1] = system: Verticillium dahliae.kieb.; assay: as above; assay type: cell-based
Septoria nodorum Berk. = assay: as above; assay type: cell-based
[2] = system: Corynespora leaf spot of tomato; assay: as above; assay type: cell-based
Leptosphaeria biglobosa = assay: as above; assay type: cell-based
Aphiscraccivora = assay: Insecticidal activity, dipping method; assay type: in vivo
Experimental: (§1) The insecticidal activity of sulfonyl functional compounds in the above embodiments were tested for agricultural biological functions, and the targets of insecticidal activity were Heliothis armigera, Plutella xylostella and Aphiscraccivora.
(§2) The insecticidal activity of sulfonyl functional compounds against Aphiscraccivora was tested by the method of dipping. Mother liquors were prepared by the sulfonyl functional compounds provided in the above embodiments dissolved in ethanol, respectively. 500 mg/L, 250 mg/L or 125 mg/L test solution could be prepared by diluting the different mother liquors with a liquor that contained 0.1 mL/L of emulgator (Tween-80). Every test solution was tested twice (Rep1 and Rep2). A blank control was set up, and the activity results were compared with the blank control. The mortality rate of 0˜30%, 30˜50%, 50-70%, 70˜90%, or 90˜100% could be orderly set as 0, 3, 5, 7, or 9.

[3] = system: Fusarium oxysporum f. sp. Niveum; assay: Bactericidal (fungicidal) activity by microdilution; assay type: cell-based
Magnaporthe oryzae = assay type: cell-based
Plutella xylostella = assay: Insecticidal activity, artificial feed surface coating method; assay type: in vivo; settings: Plutella xylostella, read-out: Insecticidal activity (mortality rate grade) Plutella xylostella
Experimental: as §1
(§3) Using Heliothis armigera and Plutella xylostella as target, the insecticidal activities of sulfonyl functional compounds were tested by conventional artificial feed surface coating method. 300 microliters of artificial feed and 20 microliters of test solution were added to each well of the 24-well cell culture plate. The test solution was used in different concentrations and repeated twice (Rep1 and Rep2). The concentrations of the test solution were 500 mg/L, 250 mg/L and 125 mg/L, respectively.
as §2

Heliothis armigera = assay: as above; assay type: in vivo; settings: Helicoverpa armigera, read-out: Insecticidal activity (mortality rate grade) Heliothis armigera
Experimental: as §1, §3, §2

Pythium aphanidermatum = assay: Bactericidal (fungicidal) activity by microdilution; assay type: cell-based
Thanatephorus cucumeris = assay: as above; assay type: cell-based
[4] = system: Colletotrichum gloeobosporioids; assay: as above; assay type: cell-based
Alternaria kikuchiana = assay: as above; assay type: cell-based

SMILES: COC(=O)Nc1nc2ccccc2n1C/C=C/S(=O)(=O)O [III-2]
- Fungicidal activity (antibacterial rate grade) Botrytis cinerea (Botrytis cinerea; 12.5 mg/L): 3 (The antibacterial rate of 0˜30% could be set as 3 if the growth of the target is normal and consistent with that of the blank control)
- Fungicidal activity (antibacterial rate grade) Botrytis cinerea (Botrytis cinerea; 25 mg/L): 3 (The antibacterial rate of 0˜30% could be set as 3 if the growth of the target is normal and consistent with that of the blank control)
- Fungicidal activity (antibacterial rate grade) Botrytis cinerea (Botrytis cinerea; 50 mg/L): 3 (The antibacterial rate of 0˜30% could be set as 3 if the growth of the target is normal and consistent with that of the blank control)
- Fungicidal activity (antibacterial rate grade) Botrytis cinerea (Botrytis cinerea; 100 mg/L): 3 (The antibacterial rate of 0˜30% could be set as 3 if the growth of the target is normal and consistent with that of the blank control)
- Fungicidal activity (antibacterial rate grade) Rhizoctonia solani (Rhizoctonia solani; 12.5 mg/L): 3 (The antibacterial rate of 0˜30% could be set as 3 if the growth of the target is normal and consistent with that of the blank control)
- Fungicidal activity (antibacterial rate grade) Rhizoctonia solani (Rhizoctonia solani; 25 mg/L): 3 (The antibacterial rate of 0˜30% could be set as 3 if the growth of the target is normal and consistent with that of the blank control)
- Fungicidal activity (antibacterial rate grade) Rhizoctonia solani (Rhizoctonia solani; 50 mg/L): 3 (The antibacterial rate of 0˜30% could be set as 3 if the growth of the target is normal and consistent with that of the blank control)
- Fungicidal activity (antibacterial rate grade) Rhizoctonia solani (Rhizoctonia solani; 100 mg/L): 3 (The antibacterial rate of 0˜30% could be set as 3 if the growth of the target is normal and consistent with that of the blank control)
- Fungicidal activity (antibacterial rate grade) Fusarium culmorum (Fusarium culmorum; 12.5 mg/L): 7 (The antibacterial rate of 70˜90% could be set as 7 if the target has small amounts of growth)
- Fungicidal activity (antibacterial rate grade) Fusarium culmorum (Fusarium culmorum; 25 mg/L): 9 (The antibacterial rate of 90˜100% could be set as 9 if the target has totally no growth)
- Fungicidal activity (antibacterial rate grade) Fusarium culmorum (Fusarium culmorum; 50 mg/L): 9 (The antibacterial rate of 90˜100% could be set as 9 if the target has totally no growth)
- Fungicidal activity (antibacterial rate grade) Fusarium culmorum (Fusarium culmorum; 100 mg/L): 9 (The antibacterial rate of 90˜100% could be set as 9 if the target has totally no growth)
- Fungicidal activity (antibacterial rate grade) Verticillium dahliae. kieb. ([1]; 12.5 mg/L): 9 (The antibacterial rate of 90˜100% could be set as 9 if the target has totally no growth)
- Fungicidal activity (antibacterial rate grade) Verticillium dahliae. kieb. ([1]; 25 mg/L): 9 (The antibacterial rate of 90˜100% could be set as 9 if the target has totally no growth)
- Fungicidal activity (antibacterial rate grade) Verticillium dahliae. kieb. ([1]; 50 mg/L): 9 (The antibacterial rate of 90˜100% could be set as 9 if the target has totally no growth)
- Fungicidal activity (antibacterial rate grade) Verticillium dahliae. kieb. ([1]; 100 mg/L): 9 (The antibacterial rate of 90˜100% could be set as 9 if the target has totally no growth)
- Fungicidal activity (antibacterial rate grade) Septoria nodorum Berk. (Septoria nodorum Berk.; 12.5 mg/L): 9 (The antibacterial rate of 90˜100% could be set as 9 if the target has totally no growth)
- Fungicidal activity (antibacterial rate grade) Septoria nodorum Berk. (Septoria nodorum Berk.; 25 mg/L): 9 (The antibacterial rate of 90˜100% could be set as 9 if the target has totally no growth)
- Fungicidal activity (antibacterial rate grade) Septoria nodorum Berk. (Septoria nodorum Berk.; 50 mg/L): 9 (The antibacterial rate of 90˜100% could be set as 9 if the target has totally no growth)
- Fungicidal activity (antibacterial rate grade) Septoria nodorum Berk. (Septoria nodorum Berk.; 100 mg/L): 9 (The antibacterial rate of 90˜100% could be set as 9 if the target has totally no growth)
- Fungicidal activity (antibacterial rate grade) Corynespora leaf spot of tomato ([2]; 12.5 mg/L): 3 (The antibacterial rate of 0˜30% could be set as 3 if the growth of the target is normal and consistent with that of the blank control)
- Fungicidal activity (antibacterial rate grade) Corynespora leaf spot of tomato ([2]; 25 mg/L): 3 (The antibacterial rate of 0˜30% could be set as 3 if the growth of the target is normal and consistent with that of the blank control)
- Fungicidal activity (antibacterial rate grade) Corynespora leaf spot of tomato ([2]; 50 mg/L): 7 (The antibacterial rate of 70˜90% could be set as 7 if the target has small amounts of growth)
- Fungicidal activity (antibacterial rate grade) Corynespora leaf spot of tomato ([2]; 100 mg/L): 7 (The antibacterial rate of 70˜90% could be set as 7 if the target has small amounts of growth)
- Fungicidal activity (antibacterial rate grade) Leptosphaeria biglobosa (Leptosphaeria biglobosa; 12.5 mg/L): 9 (The antibacterial rate of 90˜100% could be set as 9 if the target has totally no growth)
- Fungicidal activity (antibacterial rate grade) Leptosphaeria biglobosa (Leptosphaeria biglobosa; 25 mg/L): 9 (The antibacterial rate of 90˜100% could be set as 9 if the target has totally no growth)
- Fungicidal activity (antibacterial rate grade) Leptosphaeria biglobosa (Leptosphaeria biglobosa; 50 mg/L): 9 (The antibacterial rate of 90˜100% could be set as 9 if the target has totally no growth)
- Fungicidal activity (antibacterial rate grade) Leptosphaeria biglobosa (Leptosphaeria biglobosa; 100 mg/L): 9 (The antibacterial rate of 90˜100% could be set as 9 if the target has totally no growth)
- Insecticidal activity (mortality rate grade) Aphiscraccivora (Aphiscraccivora; 125 mg/L test solution): 0 (mortality rate of 0˜30%)
- Insecticidal activity (mortality rate grade) Aphiscraccivora (Aphiscraccivora; 250 mg/L test solution): 0 (mortality rate of 0˜30%)
- Insecticidal activity (mortality rate grade) Aphiscraccivora (Aphiscraccivora; 500 mg/L test solution): 0 (mortality rate of 0˜30%)
- Fungicidal activity (antibacterial rate grade) Fusarium oxysporum f. sp. Niveum ([3]; 12.5 mg/L): 9 (The antibacterial rate of 90˜100% could be set as 9 if the target has totally no growth)
- Fungicidal activity (antibacterial rate grade) Fusarium oxysporum f. sp. Niveum ([3]; 25 mg/L): 9 (The antibacterial rate of 90˜100% could be set as 9 if the target has totally no growth)
- Fungicidal activity (antibacterial rate grade) Fusarium oxysporum f. sp. Niveum ([3]; 50 mg/L): 9 (The antibacterial rate of 90˜100% could be set as 9 if the target has totally no growth)
- Fungicidal activity (antibacterial rate grade) Fusarium oxysporum f. sp. Niveum ([3]; 100 mg/L): 9 (The antibacterial rate of 90˜100% could be set as 9 if the target has totally no growth)
- Fungicidal activity (antibacterial rate grade) Magnaporthe oryzae (Magnaporthe oryzae; 12.5 mg/L): 9 (The antibacterial rate of 90˜100% could be set as 9 if the target has totally no growth)
- Fungicidal activity (antibacterial rate grade) Magnaporthe oryzae (Magnaporthe oryzae; 25 mg/L): 9 (The antibacterial rate of 90˜100% could be set as 9 if the target has totally no growth)
- Fungicidal activity (antibacterial rate grade) Magnaporthe oryzae (Magnaporthe oryzae; 50 mg/L): 9 (The antibacterial rate of 90˜100% could be set as 9 if the target has totally no growth)
- Fungicidal activity (antibacterial rate grade) Magnaporthe oryzae (Magnaporthe oryzae; 100 mg/L): 9 (The antibacterial rate of 90˜100% could be set as 9 if the target has totally no growth)
- mortality at 125 µg/mL (Plutella xylostella; 125 mg/L test solution): 0 to 30%
- mortality at 250 µg/mL (Plutella xylostella; 250 mg/L test solution): 0 to 30%
- mortality at 500 µg/mL (Plutella xylostella; 500 mg/L test solution): 0 to 30%
- mortality at 125 µg/mL (Heliothis armigera; 125 mg/L test solution): 0 to 30%
- mortality at 250 µg/mL (Heliothis armigera; 250 mg/L test solution): 0 to 30%
- mortality at 500 µg/mL (Heliothis armigera; 500 mg/L test solution): 0 to 30%
- Fungicidal activity (antibacterial rate grade) Pythium aphanidematum (Pythium aphanidermatum; 12.5 mg/L): 3 (The antibacterial rate of 0˜30% could be set as 3 if the growth of the target is normal and consistent with that of the blank control)
- Fungicidal activity (antibacterial rate grade) Pythium aphanidematum (Pythium aphanidermatum; 25 mg/L): 3 (The antibacterial rate of 0˜30% could be set as 3 if the growth of the target is normal and consistent with that of the blank control)
- Fungicidal activity (antibacterial rate grade) Pythium aphanidematum (Pythium aphanidermatum; 50 mg/L): 3 (The antibacterial rate of 0˜30% could be set as 3 if the growth of the target is normal and consistent with that of the blank control)
- Fungicidal activity (antibacterial rate grade) Pythium aphanidematum (Pythium aphanidermatum; 100 mg/L): 3 (The antibacterial rate of 0˜30% could be set as 3 if the growth of the target is normal and consistent with that of the blank control)
- Fungicidal activity (antibacterial rate grade) Thanatephorus cucumeris (Thanatephorus cucumeris; 12.5 mg/L): 9 (The antibacterial rate of 90˜100% could be set as 9 if the target has totally no growth)
- Fungicidal activity (antibacterial rate grade) Thanatephorus cucumeris (Thanatephorus cucumeris; 25 mg/L): 9 (The antibacterial rate of 90˜100% could be set as 9 if the target has totally no growth)
- Fungicidal activity (antibacterial rate grade) Thanatephorus cucumeris (Thanatephorus cucumeris; 50 mg/L): 9 (The antibacterial rate of 90˜100% could be set as 9 if the target has totally no growth)
- Fungicidal activity (antibacterial rate grade) Thanatephorus cucumeris (Thanatephorus cucumeris; 100 mg/L): 9 (The antibacterial rate of 90˜100% could be set as 9 if the target has totally no growth)
- Fungicidal activity (antibacterial rate grade) Colletotrichum gloeobosporioids ([4]; 12.5 mg/L): 9 (The antibacterial rate of 90˜100% could be set as 9 if the target has totally no growth)
- Fungicidal activity (antibacterial rate grade) Colletotrichum gloeobosporioids ([4]; 25 mg/L): 9 (The antibacterial rate of 90˜100% could be set as 9 if the target has totally no growth)
- Fungicidal activity (antibacterial rate grade) Colletotrichum gloeobosporioids ([4]; 50 mg/L): 9 (The antibacterial rate of 90˜100% could be set as 9 if the target has totally no growth)
- Fungicidal activity (antibacterial rate grade) Colletotrichum gloeobosporioids ([4]; 100 mg/L): 9 (The antibacterial rate of 90˜100% could be set as 9 if the target has totally no growth)
- Fungicidal activity (antibacterial rate grade) Alternaria kikuchiana (Alternaria kikuchiana; 12.5 mg/L): 3 (The antibacterial rate of 0˜30% could be set as 3 if the growth of the target is normal and consistent with that of the blank control)
- Fungicidal activity (antibacterial rate grade) Alternaria kikuchiana (Alternaria kikuchiana; 25 mg/L): 3 (The antibacterial rate of 0˜30% could be set as 3 if the growth of the target is normal and consistent with that of the blank control)
- Fungicidal activity (antibacterial rate grade) Alternaria kikuchiana (Alternaria kikuchiana; 50 mg/L): 3 (The antibacterial rate of 0˜30% could be set as 3 if the growth of the target is normal and consistent with that of the blank control)
- Fungicidal activity (antibacterial rate grade) Alternaria kikuchiana (Alternaria kikuchiana; 100 mg/L): 3 (The antibacterial rate of 0˜30% could be set as 3 if the growth of the target is normal and consistent with that of the blank control)
